We go through one compound from patent US8119694B2, “High concentration local anesthetic formulations” (priority 2008, dated 2012).

This series in a line: Compatibility study of drug at 40% w/w in solvent blends. The conditions noted are these: two week samples at accelerated conditions versus initial samples. It counts as physicochemical.

Method: The solubility and compatibility of lidocaine and lidocaine HCl in solvents typically used in topical pharmaceutical products was assessed in order to direct the formulation development efforts.
Initially, the solubility of lidocaine and lidocaine hydrochloride was evaluated in single solvents with varying lipophilicity. […] Based on the single solvent data, a compatibility study was initiated to evaluate the chemical stability of the drug at a concentration of 40% w/w in a variety of solvent blends that would form the base of potential prototype gel or cream formulations.

As to `CCN(CC)CC(=O)Nc1c(C)cccc1C` [lidocaine], the “chemical compatibility (potency) in solvent blends” value is “absence of a drop in potency”.
